One assay relates to human neutrophils. To be noted: concentration-dependent 1˜25 mM; induced by fMLP and TPA in human neutrophils; cited from earlier work.
The subject of a further assay is membrane GLUT4. The assay can be described thus: Membrane GLUT4 expression in C2C12 cells (Western blotting). The assay is classed as cell-based. To be noted: AnK 1, 5, 10 and 25 μg/mL 30 min, insulin 100 nM 25 min, vs CON group. The procedure: (§1) For the in vitro assay, C2C12 skeletal myoblasts (ATCC CRL-1772) were cultured at 37° C. in Dulbecco's modified Eagle's medium (DMEM; Gibco BRL) supplemented with 10% fetal bovine serum (FBS; Hyclone) and 100 U/ml penicillin and 100 μg/ml streptomycin (Gibco BRL), and split 1:4 using 0.05% trypsin at 80% confluency. Myoblasts were diluted and placed in a 9 cm dish. Cells were cultured to achieve 80-90% confluency and refreshed with […] (2% FBS/DMEM) every 24 hours for 5-7 days. The term “confluency” refers to the proportion of the surface of a culture dish that is covered by adherent cells growing in the dish. 100% confluency refers to complete coverage of the surface by the cells.
(§2) Differentiated C2C12 cells were serum-starved in DMEM/BSA at 37° C. for 2 hours prior to incubation with AnK (at 1, 5, 10, and 25 μg/mL) or vehicle (0.2% dimethyl sulfoxide (DMSO) in saline) for 30 min or with 100 nM insulin for 25 min.
The C2C12 cells of the other group were homogenized in a homogenization buffer having a pH value of about 7.4 and containing 250 mM sucrose, 50 mM Tris, and 0.2 mM edetic acid (EDTA). […]
(§3) Protein concentrations were determined via BCA assay (Pierce). […]
(§4) SDS polyacrylamide gel electrophoresis (SDS-PAGE) and Western blotting. Proteins were detected with antibodies specific for GLUT4, Akt, phospho-Akt (Ser^473), AMPK, and phospho-AMPK (Thr^172).

The subject of a further assay is PPARγ. The assay is described as follows: Western blotting of PPARγ in adipose tissue. The assay is classed as in vivo, C57BL/6J mice. The conditions noted are these: HFD-fed mice, AnK 10, 20, 40, Feno 250, Metf 300 mg/kg/day, vs HF group. The text has this:
The 4-week old male C57BL/6J mice (total amount n=63) were obtained from the National Laboratory Animal Center (Taipei, Taiwan). After acclimatization for one week, all of the mice were randomly assigned into a control (CON) group and a high-fat diet (HFD) group. […] After HFD feeding for 8 weeks, the HFD group was randomly subdivided into six groups (n=9 per group) receiving different treatments and fed on HFD. […] The HF+AnK1, HF+AnK2, and HF+AnK3 groups are collectively termed AnK-treated HFD groups in the following examples. The CON mice were administered vehicle. All treatments were administered via oral gavage once daily. After administration for 4 weeks, all mice were fasted 12 hours, and blood was collected from the retro-orbital sinus under ether anesthesia. At the end of the experiment, the mice were sacrificed via carbon dioxide inhalation. […]
About 0.1 g of liver tissue, skeletal muscle, or adipose tissue was used for the homogenate samples. […] The protein concentration in supernatant was determined with a BCA protein assay kit (Thermo Scientific, Rockford, Ill., USA). […] Immunoreactive bands were detected with ECL reagent kit (GE Healthcare BioSciences, Buckinghamshire, UK). The intensity of Western blot signals was analyzed using AlphaEase FC software (Alpha Innotech Corporation, Randburg, South Africa). […]
On the technique in general: Immunoblotting shows a protein as a band on a membrane.

Assay [1] concerns phospho-Akt (Ser^473)/total-Akt. The assay is described as follows: Akt phosphorylation in C2C12 cells (Western blotting). The conditions noted are these: AnK 1, 5, 10 and 25 μg/mL 30 min, insulin 100 nM 25 min, vs CON group. The assay is classed as cell-based. Here is the method:
as §1, §2
(§5) The abovementioned C2C12 cells were then washed three times with phosphate buffered saline (PBS) and divided into two groups. […]
as §3, §4

Assay [2] has as its system phospho-AMPK (Thr^172)/total-AMPK. The assay can be described thus: AMPK phosphorylation in C2C12 cells (Western blotting). The assay is classed as cell-based. The conditions noted are these: AnK 1, 5, 10 and 25 μg/mL 30 min, insulin 100 nM 25 min, vs CON group. The procedure: as §1, §2, §5, §3, §4
Assay [3] deals with human liver cancer Hep3B cells. To be noted: cited from earlier work.

Each structure is given as a SMILES string.

As to `C=C(CC[C@@H](C)[C@H]1CC[C@H]2C3=C(C(=O)C[C@]12C)[C@@]1(C)CC[C@@H](O)[C@](C)(O)[C@@H]1C[C@@H]3O)C(C)C(=O)O` (stereo partly drawn) [AnK, 3α,4β,7β-trihydroxy-4α-methylergosta-8,24(28)-dien-11-on-25S-26-oic acid], in the assay on human neutrophils, the “anti-inflammatory effects (modulation of leukocyte activity, inhibition of reactive oxygen species production)” value is listed as “anti-inflammatory effects”. Also, the “protein expression of membrane GLUT4” value with membrane GLUT4 is recorded as “enhanced”. The “expression levels of PPARγ (protein)” value in the assay on PPARγ is recorded as “significantly reduced”. In addition, the “expression ratio of phospho-Akt (p-Akt) to total-Akt (t-Akt)” value in assay [1] is listed as “higher”. The “expression ratio of phospho-AMPK (p-AMPK) to total-AMPK (t-AMPK)” value in assay [2] was “higher”. Besides, the apoptotic cell death result in assay [3] is “inducing apoptotic cell death”.

(Values after patent publication US10124012B2, “Method for treatment of hyperglycemia and hyperlipidemia” (priority 2016, dated 2018).)
